For the assay, the system named is GMP as DNA constituent. The assay can be described thus: Reactivity with GMP: adduct formation under physiological and patho-physiological conditions. Format: biochemical. From the text:
The reactivity of the compound cis-dichloro-bis(2-ethanolamine)platinum(II) was examined under physiological and patho-physiological conditions (FIG. 2). […] Chem. 39(4): 836-842 (2000); Choi, Sunhee; Mahalingaiah, Shruthi; Delaney, Sarah; Neale, Nathan R.; Masood, Syed “Substitution and Reduction of Platinum(IV) Complexes by a Nucleotide, Guanosine 5′-Monophosphate” Inorg. Chem. 38(8): 1800-1805 (1999); Chen, Yu; Guo, Zijian; Parkinson, John A.; Sadler, Peter J. “Kinetic control of reactions of a sterically hindered platinum picoline anticancer complex with guanosine 5′-monophosphate and glutathione” J. Chem. Soc., Dalton Trans.), 21: 3577-3586 (1998); Bloemink, Marieke J.; Perez, Janice M. J.; Heetebrij, Robert J.; Reedijk, Jan “The new anticancer drug [(2R)-aminomethylpyrrolidine](1,1-cyclobutanedicarboxylato)platinum(II) and its toxic S enantiomer do interact differently with nucleic acids” J. Biol. Inorg. Chem. 4(5): 554-567 (1999).
Similar to Example 8, the reactivity of the compound bis(2-ethanolatoamine-κ^2N,O)platinum(II) (see Example 8 for the synthesis) was examined. In this respect, the proportion of the nucleotide not modified by the active substance was measured.

SMILES strings stand for the structures.

In the case of `C1C[O][Pt]2([NH]1)[NH]CC[O]2` [(SP-4-2)-[bis(2-aminoethanolato)-κ^2N,O]platinum(II)], under “patho-physiological conditions (pH 6) compared to tissue free of disease (pH 7.4), FIG. 3”, the “speed of reaction with the nucleotide (proportion of the nucleotide not modified by the active substance)” value is “significantly increased speed”.
As for `OCC[NH][Pt]([Cl])([Cl])[NH]CCO` [(SP-4-2)-dichloro[bis(2-hydroxyethylamine)]platinum(II)], where the note is “FIG. 2, comparison of left and right diagram”, the “selectivity of reaction, patho-physiological versus physiological conditions” value is given as “Selectivity is therefore present”. Besides, the “reactivity: reaction with the biological target (formation of adducts with GMP)” value by setting is: (patho-physiological conditions (FIG. 2, left diagram)) “rapid reaction”; (physiological conditions (FIG. 2, right diagram)) “clearly runs slower”.
